Results as given in patent US10563263B2, “Genetic polymorphisms associated with statin response and cardiovascular diseases, methods of detection and uses thereof” (CELERA CORPORATION, priority 2010, dated 2020).

Tested on: CHD (death from CHD, nonfatal MI, or revascularization)
Experiment: WOSCOPS: SNP by pravastatin treatment interaction, logistic regression (synergy index), CHD endpoint
Assay type: in vivo, human
Conditions: for OR (synergy index), WOSCOPS, Prava vs Placebo: CHD endpoint; for OR (synergy index): WOSCOPS
Text: CARE was a secondary prevention trial and WOSCOPS was a primary prevention trial.
The CHD endpoint was defined in the analyses herein of CARE as a composite endpoint of fatal CHD, definite non-fatal MI, or revascularization, and was defined in the analyses herein of WOSCOPS as a composite endpoint of death from CHD, nonfatal MI, or revascularization. In both the CARE and WOSCOPS analyses herein, the CVD endpoint was defined as a composite endpoint of CHD or stroke. […] Revascularization, which can include percutaneous transluminal coronary angioplasty (PTCA), stent placement, and coronary artery bypass graft (CABG), are medical interventions that indicate the presence of CHD.
Cohort and case-only study designs were used to identify SNPs associated with response to statin treatment.
For each SNP, a logistic regression model having treatment status as the dependent variable and SNP as the independent predictor variable was performed, with terms for age, sex and race included in the model as covariates. The anti-log of the regression coefficient corresponding to the SNP is an estimate of the synergy index (SI) (Davis et al., “Imputing gene-treatment interactions when the genotype distribution is unknown using case-only and putative placebo analyses-a new method for the Genetics of Hypertension Associated Treatment (GenHAT) study”, Statistics in Medicine 23: (2004), pages 2413-2427). The SI is a ratio of odds ratios: for example in the CARE and WOSCOPS studies, the SI represents the factor by which the odds-ratio of statin treatment, compared with placebo, among major homozygous individuals is multiplied by in order to obtain the odds-ratio of treatment vs. placebo among heterozygous individuals; and multiplied by a second time to obtain the odds-ratio of treatment vs. placebo in minor homozygous individuals. The case-only study design results in a valid estimate of the SI under the assumption that genotype and treatment are independent in the population. In a randomized clinical trial, genotype and treatment are independent by design. The p-value for the regression coefficient corresponding to the SNP results from a test of the null hypothesis that the regression coefficient is equal to zero (SI is equal to one) and thus small p-values indicate the SI is unlikely equal to one and that the effect of treatment likely differs by genotype. […]

Structure (SMILES): CC[C@H](C)C(=O)O[C@H]1C[C@H](O)C=C2C=C[C@H](C)[C@H](CC[C@@H](O)C[C@@H](O)CC(=O)O)[C@H]21 [Pravastatin, pravastatin]
- OR (synergy index), WOSCOPS, Prava vs Placebo (SNP rs198462 (A1 G, A2 A), rec model, Caseonly): 2.12
- OR (synergy index), WOSCOPS, Prava vs Placebo (SNP rs198476 (A1 G, A2 A), rec model, cohort): 1.61
- OR (synergy index), WOSCOPS, Prava vs Placebo (SNP rs471579 (A1 A, A2 C), add model, Caseonly): 1.62
- OR (synergy index), WOSCOPS, Prava vs Placebo (SNP rs1324012 (A1 A, A2 G), add model, Caseonly): 0.60
- OR (synergy index), WOSCOPS, Prava vs Placebo (SNP rs1917527 (A1 A, A2 C), rec model, Caseonly): 0.73
- OR (synergy index), WOSCOPS, Prava vs Placebo (SNP rs7873371 (A1 A, A2 G), add model, Caseonly): 1.59
- OR (synergy index) (rs992695, Imputed, allele (A1) C, model ADD, NMISS 431): 0.7364
- OR (synergy index) (rs992695, Imputed, allele (A1) C, model DOM, NMISS 431): 0.6065
- OR (synergy index) (rs9881685, Imputed, allele (A1) A, model ADD, NMISS 431): 0.4853
- OR (synergy index) (rs9881685, Imputed, allele (A1) A, model DOM, NMISS 431): 0.4903
- OR (synergy index) (rs9936999, Imputed, allele (A1) G, model DOM, NMISS 249): 1.779
- WOSCOPS OR (rs1948, source CaseOnly, model dom, endpoint CHD): 1.96
- WOSCOPS OR (rs198476, Source cohort): 1.61
- WOSCOPS OR (rs238272, source CaseOnly, model add, endpoint CHD): 1.46
- WOSCOPS OR (rs264122, Source cohort): 0.66
- OR (synergy index) (rs483159 allele T, DOM model, Imputed): 1.412
- OR (synergy index) (rs489441 allele G, ADD model, Imputed): 1.6
- OR (synergy index) (rs489441 allele G, DOM model, Imputed): 1.651
- WOSCOPS OR (rs694780, Source caseonly): 0.62
- WOSCOPS OR (rs842796, source CaseOnly, model dom, endpoint CHD): 1.38
- WOSCOPS OR (rs886469, source CaseOnly, model dom, endpoint CHD): 0.55
- WOSCOPS OR (rs912366, source CaseOnly, model dom, endpoint CHD): 1.79
- WOSCOPS OR (rs969356, source CaseOnly, model dom, endpoint CHD): 0.54
- WOSCOPS OR (rs1009748, Source cohort): 1.35
- WOSCOPS OR (rs1015199, Source caseonly): 1.66
- WOSCOPS OR (rs1190706, Source cohort): 0.70
- WOSCOPS OR (rs1336400, Source caseonly): 1.35
- WOSCOPS OR (rs1538185, source cohort, model dom, endpoint CHD): 1.41
- WOSCOPS OR (rs1544214, source CaseOnly, model add, endpoint CHD): 1.35
- WOSCOPS OR (rs1615197, source CaseOnly, model dom, endpoint CHD): 2.25
- WOSCOPS OR (rs1705244, source CaseOnly, model dom, endpoint CHD): 0.52
- WOSCOPS OR (rs1864924, source CaseOnly, model add, endpoint CHD): 1.36
- WOSCOPS OR (rs1877986, source cohort, model dom, endpoint CHD): 0.71
- WOSCOPS OR (rs1884897, source CaseOnly, model rec, endpoint CHD): 1.78
- WOSCOPS OR (rs2008165, source cohort, model add, endpoint CHD): 0.62
- WOSCOPS OR (rs2069542, source CaseOnly, model add, endpoint CHD): 1.49
- WOSCOPS OR (rs2104506, source CaseOnly, model add, endpoint CHD): 0.65
- WOSCOPS OR (rs2108425, Source caseonly): 0.62
- WOSCOPS OR (rs2263901, source CaseOnly, model add, endpoint CHD): 1.57
- WOSCOPS OR (rs2263920, source CaseOnly, model rec, endpoint CHD): 0.41
- WOSCOPS OR (rs2265346, source CaseOnly, model dom, endpoint CHD): 0.42
- WOSCOPS OR (rs2273816, source CaseOnly, model add, endpoint CHD): 1.69
- WOSCOPS OR (rs2274473, source CaseOnly, model dom, endpoint CHD): 0.48
- WOSCOPS OR (rs2327412, Source caseonly): 1.41
- WOSCOPS OR (rs2418412, source cohort, model rec, endpoint CHD): 1.58
- WOSCOPS OR (rs2616548, Source caseonly): 1.37
- WOSCOPS OR (rs2648694, Source caseonly): 2.29
- WOSCOPS OR (rs2655222, Source caseonly): 0.20
- WOSCOPS OR (rs2941528, source CaseOnly, model add, endpoint CHD): 0.58
- WOSCOPS OR (rs2993156, Source caseonly): 0.76
- WOSCOPS OR (rs3732788, source CaseOnly, model add, endpoint CHD): 0.44
- WOSCOPS OR (rs3759607, source CaseOnly, model dom, endpoint CHD): 1.73
- WOSCOPS OR (rs3763978, Source cohort): 0.68
- WOSCOPS OR (rs3998860, source CaseOnly, model add, endpoint CHD): 0.70
- WOSCOPS OR (rs4240808, Source caseonly): 0.61
- WOSCOPS OR (rs4242281, Source caseonly): 1.46
- OR (synergy index) (rs4315598 allele T, ADD model, Imputed): 1.407
- OR (synergy index) (rs4315598 allele T, REC model, Imputed): 1.414
- OR (synergy index) (rs4321395 allele A, DOM model, Imputed): 0.5278
- OR (synergy index) (rs4321596 allele T, REC model, Genotyped): 3.01
- OR (synergy index) (rs4324417 allele T, DOM model, Imputed): 1.541
- OR (synergy index) (rs4328619 allele G, DOM model, Genotyped): 0.6446
- OR (synergy index) (rs4338909 allele T, ADD model, Imputed): 1.42
- OR (synergy index) (rs4370878 allele G, DOM model, Imputed): 1.497
- OR (synergy index) (rs4379434 allele T, DOM model, Genotyped): 1.603
- OR (synergy index) (rs4416407 allele T, DOM model, Imputed): 1.502
- OR (synergy index) (rs4417899 allele C, REC model, Imputed): 0.6657
- WOSCOPS OR (rs4420312, Source caseonly): 0.64
- OR (synergy index) (rs4442732 allele A, ADD model, Imputed): 0.7543
- OR (synergy index) (rs4444612 allele G, ADD model, Imputed): 1.407
- OR (synergy index) (rs4444612 allele G, REC model, Imputed): 1.414
- OR (synergy index) (rs4450660 allele C, DOM model, Imputed): 1.776
- OR (synergy index) (rs4509702 allele C, DOM model, Imputed): 1.497
- OR (synergy index) (rs4533145 allele T, DOM model, Imputed): 0.6617
- OR (synergy index) (rs4557006 allele A, DOM model, Imputed): 0.5409
- OR (synergy index) (rs4570530 allele C, DOM model, Imputed): 1.497
- OR (synergy index) (rs4615971 allele C, DOM model, Imputed): 1.474
- OR (synergy index) (rs4628119 allele A, DOM model, Imputed): 0.5304
- OR (synergy index) (rs4664443 allele G, ADD model, Imputed): 0.6931
- WOSCOPS OR (rs4682522, source CaseOnly, model dom, endpoint CHD): 0.49
- OR (synergy index) (rs4688259 allele T, DOM model, Imputed): 1.502
- OR (synergy index) (rs4688632 allele G, REC model, Imputed): 0.6718
- OR (synergy index) (rs4695284 allele A, ADD model, Imputed): 1.566
- OR (synergy index) (rs4700302 allele A, ADD model, Imputed): 0.5418
- OR (synergy index) (rs4702720 allele A, ADD model, Imputed): 0.7075
- OR (synergy index) (rs4702720 allele A, DOM model, Imputed): 0.7149
- OR (synergy index) (rs4714484 allele A, ADD model, Imputed): 0.5609
